PubChem BioAssay AID256 (DTP/NCI, 2004)
Several values for one entry are separate records, joined by “and”; a condition that tells them apart may be missing. Identical values can stand only once. Toxic doses and inconclusive results are not listed.

Tested on: CD2F1 mice, L1210 leukemia ip, survival T/C
Test: NCI In Vivo Anticancer Drug Screen. Data for tumor model L1210 Leukemia (intraperitoneal) in CD2F1 (CDF1) mice
Conditions: endpoint: mean survival time, higher = longer survival
In short: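 Antitumor effect is scored in animals hosting a serially transplanted tumor. Values compare compound-dosed animals against vehicle-only controls as a simple quotient.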

[1] = dose: 200.0 mg/kg/injection, schedule: Q04DX003 (ip), vehicle: saline with Tween-80
[2] = dose: 400.0 mg/kg/injection, schedule: Q04DX003 (ip), vehicle: saline with Tween-80
[3] = dose: 50.0 mg/kg/injection, schedule: Q01DX009 (ip), vehicle: saline with Tween-80
[4] = dose: 100.0 mg/kg/injection, schedule: Q01DX009 (ip), vehicle: saline with Tween-80
[5] = dose: 200.0 mg/kg/injection, schedule: Q01DX009 (ip), vehicle: saline with Tween-80
[6] = dose: 100.0 mg/kg/injection, schedule: Q04DX002 (ip), vehicle: saline with Tween-80
[7] = dose: 200.0 mg/kg/injection, schedule: Q04DX002 (ip), vehicle: saline with Tween-80
[8] = dose: 25.0 mg/kg/injection, schedule: Q04DX002 (ip), vehicle: saline with Tween-80
[9] = dose: 50.0 mg/kg/injection, schedule: Q04DX002 (ip), vehicle: saline with Tween-80
[10] = dose: 100.0 mg/kg/injection, schedule: Q04DX003 (ip), vehicle: saline with Tween-80
[11] = dose: 400.0 mg/kg/injection, schedule: Q01DX009 (ip), vehicle: saline with Tween-80
[12] = dose: 400.0 mg/kg/injection, schedule: Q04DX002 (ip), vehicle: saline with Tween-80
[13] = dose: 100.0 mg/kg/injection, schedule: Q04DX003 (ip), vehicle: Klucel (hydroxypropylcellulose) (HPC)
[14] = dose: 200.0 mg/kg/injection, schedule: Q04DX003 (ip), vehicle: Klucel (hydroxypropylcellulose) (HPC)
[15] = dose: 400.0 mg/kg/injection, schedule: Q04DX003 (ip), vehicle: Klucel (hydroxypropylcellulose) (HPC)
[16] = dose: 100.0 mg/kg/injection, schedule: Q01DX001 (ip), vehicle: saline
[17] = dose: 200.0 mg/kg/injection, schedule: Q01DX001 (ip), vehicle: saline
[18] = dose: 400.0 mg/kg/injection, schedule: Q01DX001 (ip), vehicle: saline
[19] = dose: 25.0 mg/kg/injection, schedule: Q04DX003 (ip), vehicle: saline with Tween-80
[20] = dose: 100.0 mg/kg/injection, schedule: Q01DX001 (ip), vehicle: saline with Tween-80

O=c1c(F)cn(-c2ccco2)c(=O)n1-c1ccco1
T/C [1]: 98 % of control | T/C [2]: 102 % of control

CCCSc1ccc2nc(NC(=O)OC)[nH]c2c1
T/C [3]: 93 % of control | T/C [4]: 107 % of control | T/C [5]: 118 % of control

CCC1(c2ccccc2)C(=O)N(CBr)C(=O)N(CBr)C1=O
T/C (dose: 12.5 mg/kg/injection, schedule: Q01DX009 (ip), vehicle: saline with Tween-80): 98 % of control | T/C (dose: 25.0 mg/kg/injection, schedule: Q01DX009 (ip), vehicle: saline with Tween-80): 93 % of control | T/C [3]: 96 % of control

CN(C)N=Nc1ccc(S(N)(=O)=O)cc1
T/C (dose: 18.75 mg/kg/injection, schedule: Q01DX009 (ip), vehicle: Klucel (hydroxypropylcellulose) (HPC)): 106 % of control | T/C (dose: 37.5 mg/kg/injection, schedule: Q01DX009 (ip), vehicle: Klucel (hydroxypropylcellulose) (HPC)): 124 % of control | T/C (dose: 150.0 mg/kg/injection, schedule: Q01DX009 (ip), vehicle: Klucel (hydroxypropylcellulose) (HPC)): 118 % of control

CC1=C(CCC#N)C(=O)C(CCC#N)C(C)(C)C1 (stereo not given)
T/C [6]: 94 % of control | T/C [7]: 89 % of control

NNc1ccccc1F
T/C [8]: 97 % of control | T/C [9]: 90 % of control | T/C [6]: 93 % of control | T/C (dose: 100.0 mg/kg/injection, schedule: Q04DX003 (ip), vehicle: saline sonified): 87 % of control

Cc1ccc(S(=O)(=O)N(C)N=O)cc1
T/C [4]: 89 % of control | T/C [10]: 97 % of control | T/C [5]: 106 % of control | T/C [1]: 102 % of control | T/C [11]: 102 % of control | T/C [2]: 107 % of control

O=[N+]([O-])c1ccc(SC2CCC(Cl)C3CCCCC23)c([N+](=O)[O-])c1 (stereo not given)
T/C [8]: 93 % of control | T/C [9]: 90 % of control | T/C [6]: 86 % of control and 93 % of control | T/C [12]: 86 % of control

CC(C)(C)OC(=O)NNC(=O)c1ccc([N+](=O)[O-])cc1
T/C (dose: 6.25 mg/kg/injection, schedule: Q01DX009 (ip), vehicle: alcohol): 172 % of control | T/C (dose: 12.5 mg/kg/injection, schedule: Q01DX009 (ip), vehicle: alcohol): 100 % of control | T/C (dose: 25.0 mg/kg/injection, schedule: Q01DX009 (ip), vehicle: alcohol): 97 % of control

CC1CCC2CON(C#N)C2C1 (stereo not given)
T/C [13]: 109 % of control | T/C [14]: 101 % of control | T/C [15]: 101 % of control

COc1cc(CO)ccc1OCc1ccccc1
T/C [10]: 98 % of control | T/C [1]: 96 % of control | T/C [2]: 105 % of control

O/N=C/c1cccc(CC(O)(C(F)(F)F)C(F)(F)F)n1
T/C [10]: 97 % of control | T/C [1]: 95 % of control | T/C [2]: 95 % of control

COC(=O)C1C2CC(=O)C(C2)C1C(=O)OC (stereo not given)
T/C [4]: 93 % of control | T/C [5]: 99 % of control | T/C [11]: 93 % of control

COc1ncnc2c1cnn2C1OC(CO)C(O)C1O (stereo not given)
T/C (dose: 12.5 mg/kg/injection, schedule: Q01DX005 (ip), vehicle: water): 94 % of control | T/C (dose: 25.0 mg/kg/injection, schedule: Q01DX005 (ip), vehicle: water): 96 % of control | T/C (dose: 50.0 mg/kg/injection, schedule: Q01DX005 (ip), vehicle: water): 96 % of control | T/C (dose: 100.0 mg/kg/injection, schedule: Q01DX005 (ip), vehicle: water): 104 % of control | T/C (dose: 200.0 mg/kg/injection, schedule: Q01DX005 (ip), vehicle: water): 107 % of control

Cc1ccc2snc(C(=O)O)c2c1[N+](=O)[O-]
T/C [10]: 98 % of control | T/C [1]: 104 % of control | T/C [2]: 103 % of control

Cc1ccc2cc(O)ccc2c1
T/C [3]: 97 % of control | T/C [4]: 98 % of control

O=Cc1cc([N+](=O)[O-])cc(CCl)c1O
T/C (dose: 25.0 mg/kg/injection, schedule: Q01DX009 (ip), vehicle: Klucel (hydroxypropylcellulose) (HPC)): 95 % of control | T/C (dose: 50.0 mg/kg/injection, schedule: Q01DX009 (ip), vehicle: Klucel (hydroxypropylcellulose) (HPC)): 95 % of control | T/C (dose: 100.0 mg/kg/injection, schedule: Q01DX009 (ip), vehicle: Klucel (hydroxypropylcellulose) (HPC)): 101 % of control

CCOC(=O)/C=C(/C)N
T/C [16]: 101 % of control | T/C [17]: 101 % of control | T/C [18]: 107 % of control

Cc1cc(CCl)c(C)cc1CCl
T/C (dose: 6.25 mg/kg/injection, schedule: Q04DX003 (ip), vehicle: saline with Tween-80): 91 % of control | T/C (dose: 12.5 mg/kg/injection, schedule: Q04DX003 (ip), vehicle: saline with Tween-80): 91 % of control | T/C [19]: 87 % of control | T/C [10]: 98 % of control

CN(C)/C=N/NC(=O)c1ccccc1O
T/C [10]: 98 % of control | T/C [1]: 100 % of control | T/C [2]: 100 % of control

CC(=O)OCCN1C(=O)c2ccccc2C1=O
T/C [13]: 97 % of control | T/C [14]: 94 % of control | T/C [15]: 102 % of control

C/C=C1/OC(n2cnc3c(N)ncnc32)C(O)C1O (stereo not given)
T/C (dose: 10.0 mg/kg/injection, schedule: Q01DX005 (ip), vehicle: distilled water + Tween-80): 103 % of control | T/C (dose: 20.0 mg/kg/injection, schedule: Q01DX005 (ip), vehicle: distilled water + Tween-80): 107 % of control | T/C (dose: 40.0 mg/kg/injection, schedule: Q01DX005 (ip), vehicle: distilled water + Tween-80): 95 % of control | T/C (dose: 80.0 mg/kg/injection, schedule: Q01DX005 (ip), vehicle: distilled water + Tween-80): 100 % of control | T/C (dose: 160.0 mg/kg/injection, schedule: Q01DX005 (ip), vehicle: distilled water + Tween-80): 97 % of control

C[CH2][Pb]([CH2]C)([CH2]C)[O]C(=O)c1cc(-c2ccccc2)nc2ccccc12
T/C (dose: 1.56 mg/kg/injection, schedule: Q01DX009 (ip), vehicle: saline with Tween-80): 98 % of control | T/C (dose: 3.13 mg/kg/injection, schedule: Q01DX009 (ip), vehicle: saline with Tween-80): 98 % of control | T/C (dose: 6.25 mg/kg/injection, schedule: Q01DX009 (ip), vehicle: saline with Tween-80): 91 % of control and 104 % of control

O=S(=O)(c1ccccc1)c1ccc(Br)cc1
T/C [4]: 94 % of control | T/C [5]: 96 % of control | T/C [11]: 98 % of control

CCOC(=O)c1cnc(SCc2ccccc2)nc1N
T/C [4]: 92 % of control | T/C [10]: 100 % of control | T/C [5]: 94 % of control | T/C [1]: 100 % of control | T/C [11]: 96 % of control | T/C [2]: 97 % of control

CN(C)C=NC1(c2ccccc2)CCCCC1
T/C [19]: 97 % of control | T/C (dose: 50.0 mg/kg/injection, schedule: Q04DX003 (ip), vehicle: saline with Tween-80): 92 % of control | T/C [10]: 91 % of control and 97 % of control

O=C1CCC2(C=C(Br)C(=O)C(Br)=C2)O1
T/C (dose: 5.0 mg/kg/injection, schedule: Q01DX009 (ip), vehicle: saline with Tween-80): 98 % of control | T/C (dose: 5.0 mg/kg/injection, schedule: Q04DX003 (ip), vehicle: saline with Tween-80): 103 % of control | T/C (dose: 10.0 mg/kg/injection, schedule: Q04DX003 (ip), vehicle: saline with Tween-80): 105 % of control | T/C (dose: 20.0 mg/kg/injection, schedule: Q04DX003 (ip), vehicle: saline with Tween-80): 101 % of control

COc1ccc2c(c1C)CN1CCc3cc4c(cc3C1=C2)OCO4
T/C (dose: 75.0 mg/kg/injection, schedule: Q01DX001 (ip), vehicle: other): 94 % of control | T/C (dose: 150.0 mg/kg/injection, schedule: Q01DX001 (ip), vehicle: other): 88 % of control | T/C (dose: 300.0 mg/kg/injection, schedule: Q01DX001 (ip), vehicle: other): 88 % of control

O=S(=O)(c1ccc(N2CCOCC2)cc1)c1ccnc2cc(Cl)ccc12
T/C [20]: 93 % of control | T/C [4]: 89 % of control | T/C (dose: 200.0 mg/kg/injection, schedule: Q01DX001 (ip), vehicle: saline with Tween-80): 101 % of control | T/C (dose: 400.0 mg/kg/injection, schedule: Q01DX001 (ip), vehicle: saline with Tween-80): 87 % of control

O=[N+]([O-])c1ccc(Nc2cccc(Cl)c2)c([N+](=O)[O-])c1
T/C [1]: 87 % of control

COc1ccc(-n2cnc3c(=O)[nH]cnc32)cc1
T/C [6]: 86 % of control | T/C [7]: 90 % of control | T/C [12]: 86 % of control

NCS(=O)(=O)O
T/C [20]: 98 % of control

O=C(c1ccccc1)C(Br)C(C(=O)O)c1ccccc1 (stereo not given)
T/C [10]: 101 % of control | T/C [1]: 95 % of control | T/C [2]: 95 % of control

CCc1ccc(NC(=O)c2ccc(C(=O)Nc3ccc(CC)cc3)cc2)cc1
T/C [16]: 95 % of control | T/C [17]: 95 % of control | T/C [18]: 104 % of control
